The values below come from BindingDB's records for doi:10.1021/jm00116a002 (Abbott Laboratories, 1992).

pIC50: −log10 of the molar value.

For one experiment, the target named is Gastrin/cholecystokinin type B receptor (Cavia porcellus). In words: The compound was tested for the inhibition of [125I]-Bolton-Hunter CCK-8 binding to cholecystokinin type B receptor in guinea pig cerebral cortical.
One may read the pIC50 as −log10 of the IC50, conventionally taken in molar units. Lower therefore signals a large IC50. Consider `CCCCCN(CCCCC)C(=O)[C@@H](Cc1c[nH]c2ccccc12)NC(=O)c1ccc2cccc(O)c2n1`, for which the pIC50 was under 5.00.

Regarding `CN(Cc1ccccc1)C(=O)[C@@H](Cc1c[nH]c2ccccc12)NC(=O)c1cnc2ccccc2c1`, the negative logarithm of the IC50 (pIC50) is 5.00.

`CCCCCN(CCCCC)C(=O)[C@H](Cc1c[nH]c2ccccc12)NC(=O)c1ccc(Cl)c(Cl)c1` had a negative logarithm of the IC50 (pIC50) of under 5.00.

`CCCCCN(CCCCC)C(=O)[C@@H](Cc1c[nH]c2ccccc12)NC(=O)c1ccc(Cl)c(Cl)c1` gave a pIC50 of under 5.00.

`CCCCCN(CCCCC)C(=O)[C@@H](Cc1c[nH]c2ccccc12)NC(=O)c1c[nH]c2ccccc12` gave a pIC50 of 4.70.

Turning to `CCCCCN(CCCCC)C(=O)[C@@H](Cc1c[nH]c2ccccc12)NC(=O)c1cccc2ccccc12`, the negative logarithm of the IC50 (pIC50) is 5.01.

In turn, `CCCCCN(CCCCC)C(=O)[C@@H](CC1C(=O)Nc2ccccc21)NC(=O)c1cnc2ccccc2c1` (some centres not stated) gave a negative logarithm of the IC50 (pIC50) of 5.39.

In turn, `CCCCCN(CCCCC)C(=O)[C@@H](Cc1c[nH]c2ccccc12)NC(=O)c1ccc2ccccc2c1` showed a pIC50 of 4.96.

As to `C[C@H](NC(=O)[C@@H](Cc1c[nH]c2ccccc12)NC(=O)c1cnc2ccccc2c1)c1ccccc1`, the negative-log IC50 (pIC50) was under 5.00.

For the molecule `CCOC(=O)CN(Cc1ccccc1)C(=O)[C@@H](Cc1c[nH]c2ccccc12)NC(=O)c1cnc2ccccc2c1`, the pIC50 was 5.04.

The next experiment has the same target. As to the kind of experiment: The compound was tested for the inhibition of [125I]-Bolton-Hunter CCK-8 binding to cholecystokinin type B receptor in guinea pig cerebral cortical; Not determined.
Consider `CCCCCN(CCCCC)C(=O)[C@@H](Cc1c(Sc2ccccc2[N+](=O)[O-])[nH]c2ccccc12)NC(=O)c1cnc2ccccc2c1`, for which the pIC50 is under 5.00.

With `CCCCCN(CCCCC)C(=O)[C@@H](Cc1c[nH]c2ccccc12)NC(=O)/C=C/c1cccnc1`, the pIC50 is under 5.00.
